Reference: patent US12458608B2 (NACUITY PHARMACEUTICALS, INC., priority 2019, dated 2025)
“Also recorded” adds a separate entry of the source.

Legend:
[1] = tested on: Light melanin human skin explant; test: Human skin explants exposed to UVA radiation, GSSG/thiol analysed by LCMS; format: cell-based; conditions: for Levels of thiol production in human skin exposed to UVA-induced oxidative skin damage: FIG. 3; for Dermal GSSG / levels of GSSG production: topical 100 mM in 10% DMSO/water 30 min prior to UVA (24 J/cm2), tissue harvested 24 hours after UVA, single donor, n=6
Experimental: Effects of NPI-001 (NACA 10 mM) and diNACA (10 mM) on human skin explants upon radiation (UVA) exposure.
Light melanin human skin explant (single donor; n=6) in transwells were exposed to UVA radiation (24 J/cm2) with and without topical application of the NPI-001 and diNACA at a final concentration of 100 mM (NPI-001 16.2 mg/ml; diNACA 32.2 mg/ml) dissolved or suspended in 10% DMSO/water and applied at ˜18 μl/cm2(˜6 μl/0.33 cm2) 30 min prior to UVA exposure (24 J/cm2 exposure). 24 hours following UVA exposure tissue was harvested, cut in half and heat separated into epidermal and dermal layers; weighed; immediate submersion of the dermal and epidermal layers into a derivatization solution, analyzed by LCMS.

[2] = molecular target: glutamate cysteine ligase (GCL, EC 6.3.2.2); conditions: nonallosteric competitive inhibition; cited from earlier work
[3] = tested on: Reconstructed human epithelium (RHE) with melanocytes (MelanoDerm); test: Reconstructed human epithelium (RHE) model to assess decrease of pigmentation in skin (photographs, melanin extraction); format: cell-based; conditions: for RHE pigmentation: MelanoDerm RHE cultured 14 days, basolateral treatment every other day, NACA 10 mM, diNACA 10 mM, 2% GSSG, vs relative day untreated control
Experimental: Reconstructed human epithelium (RHE) model to assess the ability of NPI-001 and NPI2 to decrease pigmentation in skin:
Reconstructed human epithelium (RHE) with melanocytes were obtained from MatTek (MelanoDerm™ cat #MEL-300B). RHE were cultured for 14 days with reapplication of media with basolateral treatment every other day. Day 0, Day 7 and Day 14 RHE were photographed and frozen for melanin extraction.
After harvest of RHE on Day 14, cultures were submerged for 30 min in 1% sodium bicarbonate and transferred to Eppendorf tubes with 500 μl Solvable™ reagent for overnight incubation at 60° C. A synthetic melanin standard curve was made in Solvable™ reagent from 0.5-0.0039 mg/ml in half dilutions. 200 μl of extracted melanin was transferred to a 96 well plate and read at 490 nm for quantification.

[4] = cited from earlier work

## CC(=O)N[C@@H](CS)C(N)=O
[1]
  Levels of thiol production in human skin exposed to UVA-induced oxidative skin damage: increased
  Dermal GSSG / levels of GSSG production: increased; also recorded: statistically significant increases

## N[C@@H](CCC(=O)N[C@@H](CS)C(=O)NCC(=O)O)C(=O)O [GSH, c-L-glutamyl-L-cysteinyl-glycine]
[2]
  Ki: 2.3 mM

## CC(=O)N[C@@H](CSSC[C@H](NC(C)=O)C(N)=O)C(N)=O [diNACA, (2R,2R′)-3,3′-disulfanediyl bis(2-acetamidopropanamide)]
[1]
  Levels of thiol production in human skin exposed to UVA-induced oxidative skin damage: increased
  Dermal GSSG / levels of GSSG production: increased; also recorded: statistically significant increases
[3]
  RHE pigmentation: decreased; also recorded: significantly inhibited
[3]; listed as NPI2
  RHE pigmentation: decreased
[3]; after 0, 7 and 14 days with treatment, read at 490 nm, vs untreated control at relative day of harvest
  Melanin extracted from RHE: decreased

## CC(=O)N[C@@H](CS)C(=O)O [NAC, N-acetylcysteine]
[4]; 10-12 hours after administration
  NAC detectable after administration: no NAC is detectable
[4]; humans
  Plasma half-life: 2.5 h
[4]; oral dose of 600 mg in humans
  Absorption and clearance: rapidly absorbed and then rapidly cleared
